# Assay results from patent publication US20050227994A1, “Decomposition inhibitor for extracellular matrix of cartilage” (Shionogi & Co., Ltd., priority 2002, published 2005).
# Molecular target: T1, MMP-13 (Homo sapiens, UniProt P45452)
# T1 construct: catalytic domain (^104Tyr˜^267Gly) was amplified with RT-PCR; His-tag; enterokinase digestion-site; made in house
# Assay: Assay for inhibitory activities on MMP-13
# Assay type: biochemical
# Conditions: not given
# Experimental: In regard to MMP-13, mRNA was prepared from carcinoma cell SW1353 derived from human cartilage stimulate by IL-1, TNF and catalytic domain (^[…]) was amplified with RT-PCR. This was cloned in Escherichia. coli expression vector […] inserted with His-tag sequence and enterokinase digestion-site, induced and expressed by IPTG (Isopropyl-β-D-thiogalactopyranoside) and expressed in a insoluble fraction. Isolation of MMP-13 from an insoluble fraction was carried out by dissolving in modifier (6M urea) by a usual method and purification with metal chelate chromatography (Ni […] Sepharose). […] The enzymatic activity on MMP was analyzed by the method described in “C. Graham Knight, Frances Willenbrock and Gillian Murphy: A novel coumarin-labelled peptide for sensitive continuous assays of the matrix metalloproteinases: […] The substrate: MOCAc-[…] was purchased from Peptide Institute, Inc., Osaka, Japan.
row,SMILES,IC50
1,O=C(O)[C@@H](Cc1ccccc1)NS(=O)(=O)c1ccc(-c2ccc(C#Cc3ccc4ccccc4c3)cc2)cc1 [Compound E-29],0.00992 µM

# Same assay, conditions: catalytic domain, substrate MOCAc-Pro-Leu-Gly-Leu-A2Pr(DNP)-Ala-Arg-NH2; read-out: MMP-13 (IC50μM)
row,SMILES,IC50
1,CSc1ccc(-c2ccc(S(=O)(=O)N[C@@H](CCC(=O)O)C(=O)O)cc2)cc1 [Compound E-11],0.0091 µM
2,CSc1ccc(-c2ccc(-c3ccc(S(=O)(=O)N[C@@H](C(=O)O)C(C)C)s3)s2)cc1 [Compound L-2],0.0147 µM
3,CC(C)C(NS(=O)(=O)c1ccc(-c2ccccc2)cc1)C(=O)O (stereo not drawn) [Compound E-1],0.4 µM
4,O=C(O)[C@H](Cc1ccccc1)NS(=O)(=O)c1ccc(-c2noc(-c3ccc4cc(Br)ccc4c3)n2)cc1 [Compound C-9],> 10 µM
5,CN(C)c1ccc(-c2ccc(S(=O)(=O)N[C@H](Cc3c[nH]c4ccccc34)C(=O)O)s2)cc1 [Compound F-11],0.00047 µM
6,CC(C)C(NS(=O)(=O)c1ccc(-c2ccc(OC(F)(F)F)cc2)cc1)C(=O)O (stereo not drawn) [Compound E-20],0.0141 µM
7,CC(C)C[C@@H](NS(=O)(=O)c1ccc(-c2ccc(N3CCCCC3)cc2)s1)C(=O)O [Compound F-16],0.25 µM
8,CNc1ccc(-c2ccc(S(=O)(=O)NC(C(=O)O)C(C)C)s2)cc1 (stereo not drawn) [Compound F-21],1.26 µM
9,CC(C)C(NS(=O)(=O)c1ccc(-c2ccc(Cl)cc2)cc1)C(=O)O (stereo not drawn) [Compound E-3],0.083 µM
10,CC(C)C[C@H](NS(=O)(=O)c1ccc(-c2ncc(-c3ccc(Cl)cc3)s2)cc1)C(=O)O [Compound A-9],0.0065 µM
11,O=C(O)[C@@H](Cc1ccccc1)NS(=O)(=O)c1ccc(C#Cc2ccc3c(c2)OCO3)s1 [Compound H-1],0.044 µM
12,CC(=O)NCCc1ccc(-n2nnc(-c3ccc(S(=O)(=O)N[C@H](Cc4ccccc4)C(=O)O)cc3)n2)cc1 [Compound I-2],0.01 µM
13,COc1ccc(-c2ccc(S(=O)(=O)N[C@H](Cc3c[nH]c4ccccc34)C(=O)O)s2)cc1 [Compound F-9],0.0036 µM
14,CCC(C)[C@H](NS(=O)(=O)c1ccc(-c2ncc(-c3ccc(OC)cc3)s2)cc1)C(=O)O (stereo partly drawn) [Compound A-2],0.0013 µM
15,CSc1ccc(-c2nc(-c3ccc(S(=O)(=O)N[C@H](Cc4ccccc4)C(=O)O)cc3)no2)cc1 [Compound C-10],0.0174 µM
16,CCSc1ccc(-c2ccc(S(=O)(=O)NC(C(=O)O)C(C)C)cc2)cc1 (stereo not drawn) [Compound E-15],0.0195 µM
17,O=C(O)[C@@H](Cc1ccccc1)NS(=O)(=O)c1ccc(-c2nc(-c3ccc(C(F)(F)F)cc3)no2)cc1 [Compound D-4],0.167 µM
18,CC(C)C[C@H](NS(=O)(=O)c1ccc(-c2ncc(-c3ccc(F)cc3)s2)cc1)C(=O)O [Compound A-11],0.0114 µM
19,CSCC[C@@H](NS(=O)(=O)c1ccc(-c2noc(-c3ccc(C(C)C)cc3)n2)cc1)C(=O)O [Compound C-6],0.018 µM
20,COc1ccc(-c2ccc(S(=O)(=O)N[C@H](CCSC)C(=O)O)s2)cc1 [Compound F-6],0.0376 µM
21,O=C(O)[C@H]1[C@@H]2CC[C@@H](C2)[C@@H]1NS(=O)(=O)c1ccc(-c2ccon2)s1 [Compound O-1],> 10 µM
22,O=C(O)[C@H]1[C@@H]2CC[C@@H](C2)[C@@H]1NS(=O)(=O)c1ccc(-c2ccc(N3CCCC3)cc2)s1 [Compound O-2],0.34 µM
23,O=C(O)[C@H](Cc1ccccc1)NS(=O)(=O)c1ccc(-c2noc(-c3ccc4c(c3)OCO4)n2)cc1 [Compound C-8],0.049 µM

row,SMILES,IC50
1,O=C(O)[C@@H](Cc1ccccc1)NS(=O)(=O)c1ccc(-c2nc(-c3ccc4ccccc4c3)no2)cc1 [Compound D-5],1.01 µM
2,CCCCc1ccc(-c2noc(-c3ccc(S(=O)(=O)N[C@@H](C(=O)O)C(C)C)cc3)n2)cc1 [Compound D-1],0.028 µM
3,CC(C)c1ccc(-c2nc(-c3ccc(S(=O)(=O)N[C@@H](C(=O)O)C(C)C)cc3)no2)cc1 [Compound C-4],0.0057 µM
4,O=C(O)[C@@H](Cc1ccccc1)NS(=O)(=O)c1ccc(-c2ncc(-c3ccccc3)s2)s1 [Compound N-7],0.114 µM
5,O=C(O)[C@@H](NS(=O)(=O)c1ccc(-c2ncc(-c3ccc(Cl)cc3)s2)cc1)c1ccccc1 [Compound A-10],0.0246 µM
6,Cc1ccc(-c2ccc(-c3ccc(S(=O)(=O)N[C@H](C(=O)O)C(C)C)s3)s2)cc1 [Compound L-5],0.134 µM
7,CSc1ccc(-c2nnn(-c3ccc(S(=O)(=O)N[C@H](Cc4ccccc4)C(=O)O)cc3)n2)cc1 [Compound J-1],0.0485 µM
8,CC1C(=O)NCCN1S(=O)(=O)c1ccc(-c2ccc(N3CCOCC3)cc2)s1 (stereo not drawn) [Compound O-8],2.99 µM
9,O=C(O)[C@H](Cc1ccccc1)NS(=O)(=O)c1ccc(C#Cc2ccc3c(c2)OCO3)cc1 [Compound G-9],0.0366 µM
10,CCSc1ccc(-c2ccc(S(=O)(=O)NC(C)C(=O)O)cc2)cc1 (stereo not drawn) [Compound E-14],0.0135 µM
11,Cc1ccc(-c2ccc(-c3ccc(S(=O)(=O)NCC(=O)O)s3)s2)cc1 [Compound L-4],0.281 µM
12,O=C(O)[C@@H](Cc1ccccc1)NS(=O)(=O)c1ccc(-c2ccc(-n3cccc3)cc2)s1 [Compound F-14],0.0104 µM
13,O=C(O)[C@@H](Cc1ccccc1)NS(=O)(=O)c1ccc(C#CC2=CCCCC2)s1 [Compound H-14],0.153 µM
14,O=C(O)[C@H](Cc1c[nH]c2ccccc12)NS(=O)(=O)c1ccc(-c2ccc(N3CCCC3)cc2)s1 [Compound F-7],0.043 µM
15,CC(C)[C@H](NS(=O)(=O)c1ccc(-c2ncc(-c3ccc(Br)cc3)s2)cc1)C(=O)O [Compound A-5],0.002 µM
16,CCCCc1ccc(-n2nnc(-c3ccc(S(=O)(=O)N[C@H](Cc4ccccc4)C(=O)O)cc3)n2)cc1 [Compound I-5],0.0179 µM
17,CC(C)[C@@H](NS(=O)(=O)c1ccc(-c2ccc(-c3ccccc3)cc2)cc1)C(=O)O [Compound E-24],0.024 µM
18,O=C(O)C[C@@H](NS(=O)(=O)c1ccc(-c2ncc(-c3ccc(Cl)c(Cl)c3)s2)cc1)C(=O)O [Compound A-16],0.0154 µM
19,O=C(O)[C@H](NS(=O)(=O)c1ccc(-c2ncc(-c3ccc(Br)cc3)s2)cc1)c1ccccc1 [Compound A-7],0.0111 µM
20,Cc1ccc(-c2ccc(-c3ccc(S(=O)(=O)NCCCC(=O)O)cc3)s2)cc1 [Compound O-5],> 10 µM
21,CSc1ccc(-c2ccc(S(=O)(=O)NC(C(=O)O)c3cccs3)cc2)cc1 (stereo not drawn) [Compound E-13],0.0254 µM
22,COc1ccc2cc(-c3nc(-c4ccc(S(=O)(=O)N[C@H](C)C(=O)O)cc4)cs3)ccc2c1 [Compound M-2],> 10 µM
23,CSCC[C@@H](NS(=O)(=O)c1ccc(-c2ncc(-c3ccc(Br)cc3)s2)cc1)C(=O)O [Compound A-8],0.0038 µM

row,SMILES,IC50
1,CSc1ccc(-c2ccc(S(=O)(=O)N[C@H](CC(=O)O)C(=O)O)cc2)cc1 [Compound E-9],0.0132 µM
2,CSc1ccc(-c2ccc(-c3ccc(S(=O)(=O)N[C@@H](C(=O)O)C(C)C)cc3)s2)cc1 [Compound K-5],0.00526 µM
3,CNc1ccc(-c2ccc(S(=O)(=O)N[C@@H](Cc3ccccc3)C(=O)O)s2)cc1 [Compound F-22],0.854 µM
4,O=C(O)[C@@H](Cc1c[nH]c2ccccc12)NS(=O)(=O)c1ccc(-c2ncc(-c3ccc(F)c(F)c3)s2)cc1 [Compound A-14],0.0061 µM
5,C[C@H](NS(=O)(=O)c1ccc(-c2ncc(-c3ccc4ccccc4c3)o2)cc1)C(=O)O [Compound B-2],0.763 µM
6,O=C(O)[C@@H](Cc1ccccc1)NS(=O)(=O)c1ccc(-c2ncc(-c3ccc(Cl)c(Cl)c3)o2)cc1 [Compound B-5],0.0169 µM
7,CC(C)c1ccc(-c2nc(-c3ccc(S(=O)(=O)N[C@H](C)C(=O)O)cc3)no2)cc1 [Compound C-3],0.0113 µM
8,O=C(O)C(Cc1ccccc1)NS(=O)(=O)c1ccc(-c2ccc(F)cc2)cc1 (stereo not drawn) [Compound E-26],0.21 µM
9,C#Cc1ccc(C#Cc2ccc(S(=O)(=O)N[C@H](Cc3c[nH]c4ccccc34)C(=O)O)cc2)cc1 [Compound G-2],0.015 µM
10,O=C(O)c1ccc(C#Cc2ccc(S(=O)(=O)N[C@H](Cc3ccccc3)C(=O)O)s2)cc1 [Compound H-3],6 µM
11,O=C(O)[C@@H](Cc1ccccc1)NS(=O)(=O)c1ccc(-c2ncc(-c3ccc(Br)cc3)s2)cc1 [Compound A-6],0.0029 µM
12,Cc1ccc(C#Cc2ccc(S(=O)(=O)N[C@H](Cc3c[nH]c4c(O)cccc34)C(=O)O)s2)cc1 [Compound H-6],0.0113 µM
13,CC(C)C[C@@H](NS(=O)(=O)c1ccc(C#Cc2ccc3ccccc3c2)s1)C(=O)O [Compound H-10],1.37 µM
14,CCC(C)C(NS(=O)(=O)c1ccc(-c2ccc(SC)cc2)cc1)C(=O)O (stereo not drawn) [Compound E-5],0.0022 µM
15,Cc1ccc(-c2ccc(-c3ccc(S(=O)(=O)N[C@@H](C(=O)O)C(C)C)s3)s2)cc1 [Compound L-1],0.031 µM
16,C[C@@H](NS(=O)(=O)c1ccc(-c2ccc(-n3cccc3)cc2)s1)C(=O)O [Compound F-15],0.023 µM
17,O=C(O)[C@H](Cc1ccccc1)NS(=O)(=O)c1ccc(C#Cc2ccc3ccccc3c2)s1 [Compound H-9],> 10 µM
18,O=C(O)[C@@H](Cc1ccc(-c2ccccc2)cc1)NS(=O)(=O)c1ccc(-c2ccccc2)cc1 [Compound E-23],1.06 µM
19,CCOc1ccc(-c2ccc(S(=O)(=O)NC(C(=O)O)C(C)C)cc2)cc1 (stereo not drawn) [Compound E-19],0.0122 µM
20,O=C(O)[C@@H](Cc1ccccc1)NS(=O)(=O)c1ccc(-c2nc(-c3ccc(Cl)c(Cl)c3)no2)cc1 [Compound D-6],0.764 µM
21,COc1ccc(-c2ccc(S(=O)(=O)NC(C(=O)O)C(C)C)s2)cc1 (stereo not drawn) [Compound F-2],0.53 µM
22,CSc1ccc(-c2ccc(S(=O)(=O)NC(C(=O)O)C(C)C)cc2)s1 (stereo not drawn) [Compound K-1],0.0202 µM
